Converted amounts (≈) assume the structure as drawn.
Legend:
Assay type in all cases: functional
Pseudomonas aeruginosa [1] = assay: Antibacterial activity against Pseudomonas aeruginosa […] by macrobroth dilution method
Micrococcus luteus [2] = assay: Antibacterial activity against Micrococcus luteus NRRLB 4375 at 100 ug/ml after 24 hr by disk diffusion method; details: NRRLB 4375, 24 h, read-out: DIZ
Micrococcus luteus [3] = assay: Antibacterial activity against Micrococcus luteus NRRLB 4375 by macrobroth dilution method
Pseudomonas aeruginosa [4] = assay: Antibacterial activity against Pseudomonas aeruginosa […] at 100 ug/ml after 24 hr by disk diffusion method; details: read-out: DIZ
Bacillus subtilis [5] = assay: Antibacterial activity against Bacillus subtilis RSKK 244 at 100 ug/ml after 24 hr by disk diffusion method; details: RSKK 244, 24 h, read-out: DIZ
Bacillus subtilis [6] = assay: Antibacterial activity against Bacillus subtilis RSKK 244 by macrobroth dilution method
Candida albicans = assay: Antifungal activity against Candida albicans ATCC 90028 at 100 ug/ml by disk diffusion method; details: read-out: DIZ
Priestia megaterium = assay: Antibacterial activity against Bacillus megaterium clinical isolate at 100 ug/ml after 24 hr by disk diffusion method; details: read-out: DIZ

SMILES	MIC (Pseudomonas aeruginosa [1])	zone of inhibition at 100 µg/mL (Micrococcus luteus [2])	MIC (Micrococcus luteus [3])	zone of inhibition at 100 µg/mL (Pseudomonas aeruginosa [4])	zone of inhibition at 100 µg/mL (Bacillus subtilis [5])	MIC (Bacillus subtilis [6])	zone of inhibition at 100 µg/mL (Candida albicans)	zone of inhibition at 100 µg/mL (Priestia megaterium)
Cc1ccc(-c2c(C#N)c(N)nc3c2CCC3)o1	12.5 µg/mL (≈ 52.2 µM)	15 mm	25 µg/mL (≈ 104 µM)	17 mm	22.5 mm	12.5 µg/mL (≈ 52.2 µM)		
Cc1ccsc1-c1c(C#N)c(N)nc2c1CCCC2	25 µg/mL (≈ 92.8 µM)	9 mm	37.5 µg/mL (≈ 139 µM)	9 mm				
OC(Cn1cncn1)(Cn1cncn1)c1ccc(F)cc1F [FLUCONAZOLE]			8 µg/mL (≈ 26.1 µM)					
Cc1ccsc1-c1c(C#N)c(N)nc2c1CCC2		11 mm	37.5 µg/mL (≈ 147 µM)		13 mm	37.5 µg/mL (≈ 147 µM)		
Cc1ccc(-c2c(C#N)c(N)nc3c2CCCCC3)o1	25 µg/mL (≈ 93.5 µM)	9 mm	25 µg/mL (≈ 93.5 µM)	14 mm				
Cc1ccc(-c2c(C#N)c(N)nc3c2CCCCC3)s1	25 µg/mL (≈ 88.2 µM)	20 mm	25 µg/mL (≈ 88.2 µM)	19 mm	10 mm	37.5 µg/mL (≈ 132 µM)		
Cc1ccc(-c2c(C#N)c(N)nc3c2CCCC3)s1	12.5 µg/mL (≈ 46.4 µM)	12 mm	25 µg/mL (≈ 92.8 µM)	20 mm				
CC(=O)N1CCN(c2ccc(OCC3COC(Cn4ccnc4)(c4ccc(Cl)cc4Cl)O3)cc2)CC1 (stereo not drawn) [KETOCONAZOLE]							16 mm	
Cc1ccc(-c2c(C#N)c(N)nc3c2CCCC3)o1		11 mm	37.5 µg/mL (≈ 148 µM)					
CN(C)[C@@H]1C(O)=C(C(N)=O)C(=O)[C@@]2(O)C(O)=C3C(=O)c4c(O)cccc4[C@@](C)(O)[C@H]3C[C@@H]12 [TETRACYCLINE]		28 mm						
Cc1ccsc1-c1c(C#N)c(N)nc2c1CCCCC2	12.5 µg/mL (≈ 44.1 µM)			17 mm	10 mm	37.5 µg/mL (≈ 132 µM)		
CC1(C)S[C@@H]2[C@H](NC(=O)[C@H](N)c3ccccc3)C(=O)N2[C@H]1C(=O)O [AMPICILLIN]		31 mm	8 µg/mL (≈ 22.9 µM)		15 mm			10 mm
Cc1ccc(-c2c(C#N)c(N)nc3c2CCC3)s1	25 µg/mL (≈ 97.9 µM)	12 mm	37.5 µg/mL (≈ 147 µM)	15 mm	15 mm	25 µg/mL (≈ 97.9 µM)		
CC1(C)S[C@@H]2[C@H](NC(=O)Cc3ccccc3)C(=O)N2[C@H]1C(=O)O [PENICILLIN G]		9 mm						

Source: ChEMBL document CHEMBL3046933, “Synthesis and evaluation of a series of aminocyanopyridines as antimicrobial agents” (2011)
